Measurements from PubChem BioAssay AID463204 (Broad Institute, 2010).
Activity calls are given as the source filed them.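 Rule for the calls: active = AC50 no more than ten times the top concentration tested, that is within one log above it; inconclusive = flat curve fit with activity between 30% and 70%, or invalid poor fit; inactive = AC50 beyond ten times the top tested dose.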

These compounds were tested on S. cerevisiae Mot1-301 ts growth rescue, BacTiter-Glo ATP luminescence (assay: restored Mot1-301 yeast growth at 38.5C – whole organism, S. cerevisiae, Mot1-301 ts mutant, luminescence, dose retest, SUMOylation pathway inhibitor project, confirmation (AID 463204);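 note: growth at restrictive 38.5 degrees C of Mot1-301 OY566 strain; actives raise luminescence by restoring growth of the ts mutant at high temperature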).

SMILES	AC50
CCOc1ccc(S(=O)(=O)N2CCN(CC(O)COc3cccc([N+](=O)[O-])c3)CC2)cc1 (centres undefined)	> 42 µM (inactive)
CCS(=O)(=O)N1CCC(C(=O)NCCCN2CCN(c3ccccc3F)CC2)CC1	> 42 µM (inactive)
COc1ccc(NC(=S)NC(=O)C2CCC2)cc1	> 42 µM (inactive)
CCOC(=O)c1oc2cc(OC(C)=O)ccc2c(=O)c1-c1ccc(OC)c(OC)c1	> 42 µM (inactive)
CCOC(=O)Nc1sc(=S)n(C)c1C	> 42 µM (inactive)
CC(C)(C)c1cc(NCCCn2ccnc2)n2ncc(-c3ccc(Cl)cc3)c2n1	5.57 µM
CCN1CCN(CC(=O)N2N=CCC2c2ccccc2)CC1 (centres undefined)	> 42 µM (inactive)
Cc1cc(CNC(=O)C2CCC(=O)N(Cc3ccccc3F)C2)on1 (centres undefined)	> 42 µM (inactive)
COCCn1c(=NC(=O)c2ccc(S(=O)(=O)N3CCOCC3)cc2)sc2cc(S(N)(=O)=O)ccc21	> 42 µM (inactive)
COc1ccc2c(CC(=O)Nc3ccc(OC)c(NS(=O)(=O)c4ccc(F)cc4)c3)coc2c1	> 42 µM (inactive)
CC1=C/C(=N\OS(=O)(=O)c2ccccc2)C(C(C)C)=CC1=O	0.86 µM
COc1ccc(C(=O)N/C(=C\c2cn(C)c3ccccc23)C(=O)OCCN(C)C)cc1	> 42 µM (inactive)
O=C(N/C(=C/c1ccc2c(c1)OCO2)C(=O)N1CCOCC1)c1cccs1	> 42 µM (inactive)
NC(=O)C1CCCN(C(=S)Nc2cccc3ccccc23)C1 (centres undefined)	> 42 µM (inactive)
COc1c2ccoc2nc2c(OC)c(OC[C@@H](O)C(C)(C)O)ccc12	> 42 µM (inactive)
O=C(O)COc1ccc(=O)n(-c2ccccc2)n1	> 42 µM (inactive)
C=C(Cl)COC(=O)C1C2C=CC(C2)C1C(=O)O (centres undefined)	> 42 µM (inactive)
O=C(CP(=O)(c1ccccc1)c1ccccc1)N1CCOCC1	> 42 µM (inactive)
CN(C)C(=O)c1c2c(nc3ccccc13)CCCC2	> 42 µM (inactive)
Cc1cc([N+](=O)[O-])ccc1NC(=O)CSc1nccc(=O)[nH]1	> 42 µM (inactive)
O=C(NCCNc1ccc(Cl)cc1[N+](=O)[O-])c1ccccc1F	> 42 µM (inactive)
Cc1ccc(-c2csc3ncn(CC(=O)N4CCOCC4)c(=O)c23)cc1	> 42 µM (inactive)
COc1cc(CNCCN2CCOCC2)ccc1OCc1ccccc1Cl	> 42 µM (inactive)
O=C(Nc1nccs1)C1CCN(S(=O)(=O)c2ccc(Cl)c(C(F)(F)F)c2)CC1	> 42 µM (inactive)
O=C(Nc1nc(-c2ccccn2)cs1)c1ccc2c(c1)OCCO2	> 42 µM (inactive)

SMILES	AC50
N#Cc1c(Cn2cncn2)nc(=O)n(-c2ccc(Cl)cc2)c1N	> 42 µM (inactive)
N#Cc1cc2c(nc1SCc1cccnc1)CCC2	> 42 µM (inactive)
Fc1ccc(-c2cc(C(F)(F)F)nc(NCc3cccs3)n2)cc1	> 42 µM (inactive)
COc1cccc(NC(=O)Nc2cc(C(=O)NC(C)C)ccc2N2CC3CC(C2)c2cccc(=O)n2C3)c1 (centres undefined)	> 42 µM (inactive)
CCn1c(SCC(=O)OC)nnc1-c1ccncc1	> 42 µM (inactive)
Cn1c(=O)c2c(nc(N/N=C/c3ccc(OC(=O)c4ccco4)cc3)n2Cc2ccccc2Cl)n(C)c1=O	> 42 µM (inactive)
COC(=O)c1ccccc1SC(CC(=O)c1ccccc1)c1ccc(F)cc1 (centres undefined)	> 42 µM (inactive)
O=C(Nc1ccccc1N1CCOCC1)c1cc(Br)c(Br)s1	> 42 µM (inactive)
CCN(CC)S(=O)(=O)c1ccc(S(=O)(=O)N2CCC(C(=O)NC3CCN(Cc4ccccc4)CC3)CC2)cc1	> 42 µM (inactive)
CC(C)(C)n1nnnc1C(c1ccc(Cl)cc1)N(Cc1cccnc1)Cc1ccco1 (centres undefined)	7.98 µM
COc1ccc(CNS(=O)(=O)c2ccc3c(c2)CCN3C(=O)C2CCC2)cc1	> 42 µM (inactive)
O=C(Nc1ccc(Cl)cc1)C1=Cc2ccccc2OC1	40.9 µM
Cc1ccsc1C(=O)NCCc1ccc(S(N)(=O)=O)cc1	> 42 µM (inactive)
COc1cc(/C=N/NC(=O)c2ccncc2)ccc1OC(=O)c1ccco1	> 42 µM (inactive)
COc1ccc(-c2cc(=O)c3cc(O)ccc3o2)cc1	> 42 µM (inactive)
O=C(CCCn1cnc([N+](=O)[O-])n1)Nc1cccc2ccccc12	> 42 µM (inactive)
CCNc1nc(NCC)nc(SCCOC(=O)Nc2ccccc2)n1	> 42 µM (inactive)
COc1ccc2oc(=O)c(C(=O)NCc3ccco3)cc2c1	> 42 µM (inactive)
Cc1ccc(-c2ccc(/C=N/n3cnnc3)o2)cc1	> 42 µM (inactive)
COc1ccc(C(=O)N(CCc2ccccc2)Cc2ccccc2)c(OC)n1	> 42 µM (inactive)
CC1(C)CC(=O)C2=C(C1)OC(N)=C(C#N)C21C(=O)N(CN2CCOCC2)c2ccccc21 (centres undefined)	> 42 µM (inactive)
COc1ccc(S(=O)(=O)Nc2ccc(NC(C)=O)cc2)cc1OC	> 42 µM (inactive)
COc1ccc(NC(=O)C2CCN(c3cc(C)nc(-c4ccccc4)n3)CC2)cc1	> 42 µM (inactive)
CC(=O)NC1CCCN(O)C(=O)/C=C(\C)CCOC(=O)C(NC(C)=O)CCCN(O)C(=O)/C=C(\C)CCOC(=O)C(NC(C)=O)CCCN(O)C(=O)/C=C(\C)CCOC1=O (centres undefined)	> 42 µM (inactive)
CC1=NC2(CCCc3c2no[n+]3[O-])N(O)C1(C)C (centres undefined)	> 42 µM (inactive)

SMILES	AC50
CCN(CC)c1ncnc2ccc(Br)cc12	> 42 µM (inactive)
Oc1c(Br)cc(Br)cc1C=Nc1ccc2[nH]ncc2c1	4.76 µM
Cc1cc2c(C)ccc(C)c2nc1SCC(=O)c1cccs1	> 42 µM (inactive)
CCc1nnc(NC(=O)CSc2ccc(-c3ccc(-n4cccn4)cc3)nn2)s1	> 42 µM (inactive)
O=C(COC(=O)c1cc([N+](=O)[O-])ccc1N1CCOCC1)Nc1cccc(F)c1	> 42 µM (inactive)
COc1cc(CN2CCNC(=O)C2CC(=O)NCCc2ncccc2C)cc(OC)c1 (centres undefined)	> 42 µM (inactive)
COc1ccccc1CNC(=O)C1CCC(CNS(=O)(=O)c2ccc(C)cc2)CC1 (centres undefined)	> 42 µM (inactive)
O=S(=O)(NCC1CCCO1)c1cc(Cl)ccc1Br (centres undefined)	> 42 µM (inactive)
CCCCCCOc1ccc(N2C(=O)CC(N3CCC(C(=O)OCC)CC3)C2=O)cc1 (centres undefined)	4.96 µM
CCN(CC)C(=O)CSc1nnc(CNc2ccc(F)cc2)n1Cc1ccco1	> 42 µM (inactive)
Cc1ccc(NC(=O)Nc2cccc(C(F)(F)F)c2)nc1	> 42 µM (inactive)
CCCc1cc(=S)n2c([nH]c3ccccc32)c1C#N	> 42 µM (inactive)
CC1CCC(C(C)C)C(OC(=O)COC(=O)c2cccn2C)C1 (centres undefined)	> 42 µM (inactive)
CCOC(=O)c1cnc2c(C)c(Cl)ccc2c1N1CCOCC1	> 42 µM (inactive)
CCN1CCCC1CNC(=O)Cn1cnc2ccc(S(=O)(=O)N3CCC(C)CC3)cc2c1=O (centres undefined)	> 42 µM (inactive)
O=C(CCNC(=O)c1ccccc1)Nc1cccnc1	> 42 µM (inactive)
CC(C)CNc1cc(=O)n(C)c(=O)n1C	> 42 µM (inactive)
Cc1cc(C(F)(F)F)nc(SCC(=O)Nc2cc(C)on2)n1	> 42 µM (inactive)
CCOP(=O)(OCC)C(NC(=O)c1cccc(C)c1)C(Cl)(Cl)Cl (centres undefined)	> 42 µM (inactive)
OC1(c2ccc(F)cc2)CC2CCC(C1)N2Cc1nnnn1C1CCCCC1 (centres undefined)	> 42 µM (inactive)
COc1ccc(NC2CCCN(C(=O)c3csc(C)n3)C2)cc1 (centres undefined)	> 42 µM (inactive)
CCCCSCCCNC(=O)Nc1cccc(OC)c1	> 42 µM (inactive)
CC(C)(C)n1cnc2cc(NC(=O)c3ccc(Cl)cc3)ccc21	> 42 µM (inactive)
CCOc1ccccc1N(CC(=O)Nc1ccccc1C(=O)N1CCCC1)S(C)(=O)=O	> 42 µM (inactive)
CCCc1ccc(S(=O)(=O)NCCc2ccncc2)cc1	> 42 µM (inactive)

SMILES	AC50
COc1ccc(-c2nnc(-c3cc4c(ccc5ccccc54)oc3=O)o2)cc1	> 42 µM (inactive)
CCc1cc2c(=O)c(-c3nc4ccccc4n3C)c(C)oc2c(CN2CCOCC2)c1O	> 42 µM (inactive)
CCN(C(=S)NCCOC)c1cccc2ccccc12	> 42 µM (inactive)
COc1ccc(S(=O)(=O)NCC(=O)N(CC(=O)NCc2ccco2)Cc2ccccc2)cc1	> 42 µM (inactive)
COC(=O)c1c(C)cc(O)c(C=O)c1O	17.7 µM
COc1cc(OC)cc(OC(=O)c2ccc3c(=O)n4c(nc3c2)CCC4)c1	> 42 µM (inactive)
C[C@@]12C(=O)Nc3cc(Cl)ccc3C(=O)N1[C@H]1c3ccccc3OC[C@@H]1[C@@H]2c1ccccc1	1.98 µM
COc1cccc(N=Nc2c(=O)[nH]n3c(=O)cc(C)[nH]c23)c1	> 42 µM (inactive)
Nc1cc(=O)[nH]c(=O)n1CCc1ccccc1	> 42 µM (inactive)
COc1ccccc1CSc1ncc(-c2ccc([N+](=O)[O-])cc2)[nH]1	> 42 µM (inactive)
COc1ccc(/C=C/C(=O)N2CCC(C(N)=O)CC2)cc1S(=O)(=O)N1CCOCC1	> 42 µM (inactive)
COc1ccccc1NC(=O)CSc1nc(O)c(Cc2ccccc2)c(=O)[nH]1	> 42 µM (inactive)
Cc1cc(C)c2c(Cn3ccnc3)cc(=O)oc2c1	> 42 µM (inactive)
Cc1c(C2(O)CCCCC2)[nH]c2ccc(C#N)cc12	41.9 µM
CCOc1ccc(-c2nnc(SCC(=O)N3CCCC3)o2)cc1	> 42 µM (inactive)
CCC(C)c1ccc(S(=O)(=O)N2CCN(C(=O)COc3ccc4c(C)cc(=O)oc4c3)CC2)cc1 (centres undefined)	> 42 µM (inactive)
COc1ccc(NC(=O)c2ccc(-c3csc(C)n3)cc2)cc1	> 42 µM (inactive)
Cc1c(Cl)cccc1NC(=O)Cn1c(CCC(=O)O)ccc1-c1ccccc1	> 42 µM (inactive)
COCCN1C=C(C(=O)OC)C(c2cc3c(cc2Br)OCO3)C(C(=O)OC)=C1	> 42 µM (inactive)
COCCCN1C(=O)c2ccc(C(=O)Nc3ccc(OC)cc3OC)cc2C1=O	> 42 µM (inactive)
Cc1ccc(-c2nn(-c3ccccc3)cc2C(=O)N2CCN(c3ccccn3)CC2)cc1	> 42 µM (inactive)
CCN(CC)CCNC(=O)CCn1c(=S)[nH]c2cc3c(cc2c1=O)OCO3	> 110 µM (inactive)
CC(C)Oc1ccc(C2(C#N)CC[N+](C)(C)CC2)cc1	> 42 µM (inactive)
C=CCOC(=O)C(C#N)c1nc2ccccc2nc1N1CCN(Cc2ccccc2)CC1 (centres undefined)	> 42 µM (inactive)
